Laboratory results reported in US9376420B2 (YUHAN CORPORATION, priority 2012, dated 2016).

Target: T1, human LXRβ (Homo sapiens, UniProt P55055)
T1 construct: expressed in transfected cells; host or cells: HEK293 cells (ATCC CRL-1573), transient transfection with pFA-hLXRβ/GAL4 and pUAS
T1 sequence (P55055 222-460 limits assumed): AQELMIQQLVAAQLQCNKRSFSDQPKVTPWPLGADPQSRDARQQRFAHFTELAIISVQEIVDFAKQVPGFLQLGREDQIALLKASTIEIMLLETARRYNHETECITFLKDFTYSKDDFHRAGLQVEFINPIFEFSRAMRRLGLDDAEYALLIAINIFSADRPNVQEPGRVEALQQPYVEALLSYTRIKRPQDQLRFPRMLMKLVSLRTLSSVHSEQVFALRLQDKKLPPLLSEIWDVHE
Assay: Assay for Transcriptional Activity of LXRβ (GAL4-hLXRβ LBD luciferase reporter, transient transfection)
Assay type: cell-based
Details: HEK293 cells transfected with pFA-hLXRβ/GAL4 and pUAS, 24 hours; for Emax: fold value in comparison with the control (DMSO-treated group); for EC50: increase of transcriptional activity of LXRβ, average of three independent tests
Procedure, shortened: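 HEK293 cells transiently co-transfected with GAL4-hLXRβ LBD and 5×GAL4-UAS luciferase reporter, treated 24 h at 37 °C with compounds over 9 points (0.01–50 μM, half-log). Luminescence read after lysis; EC50 from four-parameter fit, mean of three independent tests, with a known LXR agonist as positive control.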

Emax [fold]	EC50 [µM]	Structure (SMILES)
30	0.744	CCOC(=O)c1cncc(-c2ccc(C3CC(C(O)(C(F)(F)F)C(F)(F)F)=NN3c3ccc(F)cc3F)cc2)c1 (stereo not shown) [Example 378]
50	6.7	CS(=O)(=O)N1CC=C(c2cc(C3CC(C(F)(F)C(F)(F)F)=NN3c3ccc(F)cc3F)ccn2)CC1 (stereo not shown) [Example 191, 1-(2,4-difluoro-phenyl)-5-[2-(1-methanesulfonyl-1,2,3,6-tetrahydropyridin-4-yl)-pyridin-4-yl]-3-pentafluoroethyl-4,5-dihydro-1H-pyrazole]
